Assay results published in US20100256179A1, “COMBINATION THERAPY FOR PAIN IN PAINFUL DIABETIC NEUROPATHY” (UCB PHARMA GMBH, priority 2004, published 2010).

Legend:
[1] = test system: formalin-induced flinching and licking response of the affected paw; experiment: rat formalin paw test (late phase); format: in vivo
Procedure: Rats were given an intraplantar injection of 5% formalin (50 μl) into the posterior left paw. This treatment induces a recognizable flinching and licking response of the affected paw in control animals. The number of flinches was counted for 15 minutes, beginning 20 minutes after injection of formalin. The time spent licking the affected paw was also recorded.
Male Rj: Wistar (Han) rats, 10 per group, weighing 100-130 g at the beginning of the experiments were studied per group. The test was performed blind.

[2] = test system: pain in subjects with diabetic distal sensory polyneuropathy; experiment: Randomized, double-blind placebo controlled trial of lacosamide in painful diabetic neuropathy: efficacy; format: in vivo, human
Procedure: A randomized, double-blind placebo controlled trial to investigate safety and efficacy of lacosamide in painful diabetic neuropathy was conducted.
Baseline data were collected during the last week of a 4-week Run-In Phase to ensure subject eligibility. […] The highest attained dose was maintained for 4 weeks during the Maintenance Phase, after which subjects entered the Taper Phase and were tapered off of study medication for 1 week. The Taper Phase was followed by a 2-week Safety Follow-Up Phase.
Subjects were male or female, age 18 or older. Subjects had clinically diagnosed pain attributed to diabetic distal sensory polyneuropathy for 1-5 years and a diagnosis of diabetes mellitus (Type I or Type II). Subjects had at least moderate pain (mean pain intensity during the Baseline week ≧4 out of 10 on an 11-point Likert scale) which had been stable for 4 weeks prior to randomization. Furthermore, subjects had good or fair diabetic control (glycosylated hemoglobin (HbA1C) <10%), which was optimized (best effort to achieve best control) for at least three months prior to Visit 1. Test product, dose and mode of administration, batch number
After completion of screening assessments, subjects began a 4-week Run-In Phase. […] Following the titration scheme, their dosage was escalated by 100 mg in weekly increments to a maximum dose of 400 mg/day (provided tolerability was satisfactory).
If subjects reached total or sufficient pain relief with lower doses than 400 mg/day, after careful consideration by the investigator, they were allowed to stay on the attained dose level in the Maintenance Phase. If adverse events were intolerable during the Titration Phase or the first week of the Maintenance Phase (only for those subjects reaching the 400 mg/day level), subjects could be down-titrated, once, to the next lowest dose. Subjects were treated at 400 mg/day (or highest dose achieved) for 4 weeks in the Maintenance Phase.
The primary variable was the within-subject change in average daily pain score from the Baseline week to Maintenance Phase, using an 11-point Likert scale (0-10). […]

[3] = Trough and peak plasma concentrations of unchanged lacosamide in the trial; format: in vivo, human; conditions: 400 mg/day, Maintenance Phase
[4] = Safety and tolerability of lacosamide in the trial; format: in vivo, human
Excerpt: Safety variables evaluated included adverse events, clinical laboratory assessments, electrocardiograms (ECGs), vital sign measurements, and physical and neurological examinations.

[5] = Example 4, duloxetine 8 mg/kg i.p.
[6] = Example 2, gabapentin 50 mg/kg i.p.
[7] = Example 2, gabapentin 100 mg/kg i.p.
[8] = of 60 subjects in the lacosamide group
[9] = Example 2, lacosamide 20 mg/kg i.p.
[10] = Example 3, lacosamide 10 mg/kg i.p.
[11] = Example 3, lacosamide 20 mg/kg i.p.
[12] = Example 4, lacosamide 10 mg/kg i.p.
[13] = Example 5, lacosamide 10 mg/kg i.p.
[14] = Example 5, lacosamide 20 mg/kg i.p.
[15] = Example 5, lacosamide alone at 10 mg/kg
[16] = Example 5, memantine 4 mg/kg i.p.
[17] = Example 5, memantine 8 mg/kg i.p.
[18] = Example 3, morphine 2 mg/kg i.p.
[19] = Example 3, morphine 4 mg/kg i.p.

CNCC[C@H](Oc1cccc2ccccc12)c1cccs1 [Duloxetine]
effects on number of flinches and time spent licking ([1]; Example 4, duloxetine 8 mg/kg alone): no clear effects
Licking time % change (a): compared with vehicle control [1, 5]: −26% (a)
Licking time (seconds) mean ± SEM [1, 5]: 195.5 ± 45.0 s
No. of flinches % change (a): compared with vehicle control [1, 5]: −1% (a)
No. of flinches mean ± SEM [1, 5]: 149.6 ± 27.3

NCC1(CC(=O)O)CCCCC1 [Gabapentin]
Licking time % change (a): compared with vehicle control [1, 6]: −28% (a)
Licking time (seconds) mean ± SEM [1, 6]: 161.0 ± 27.3 s
No. of flinches % change (a): compared with vehicle control [1, 6]: −24% (a)
No. of flinches mean ± SEM [1, 6]: 97.4 ± 23.8
Licking time % change (a): compared with vehicle control [1, 7]: −60% (a)
Licking time (seconds) mean ± SEM [1, 7]: 90.0 ± 22.5 s
No. of flinches % change (a): compared with vehicle control [1, 7]: −31% (a)
No. of flinches mean ± SEM [1, 7]: 88.1 ± 19.4
decrease in time spent licking ([1]; Example 2, gabapentin alone at 50 mg/kg): 28%
decrease in number of flinches as compared with vehicle controls ([1]; Example 2, gabapentin alone at 50 mg/kg, non-significant): 24%
decrease in number of flinches as compared with vehicle controls ([1]; Example 2, gabapentin alone at 100 mg/kg, non-significant): 31%
decrease in time spent licking ([1]; Example 2, gabapentin alone at 100 mg/kg, p<0.05): 60%

COC[C@@H](NC(C)=O)C(=O)NCc1ccccc1 [Lacosamide, (R)-2-acetamido-N-benzyl-3-methoxypropionamide]
reduction in pain from Baseline to the Maintenance Phase (average daily pain score, 11-point Likert scale), LSMean ([2]; Full Analysis Set (LOCF), oral lacosamide titrated to max 400 mg/day): 3.11 point
proportion of subjects with a decrease of 2 or more points on the Likert pain scale ([2]; compared with the placebo group, all phases of the trial): larger proportion
CGIC and PGIC scores ([2]; end of Maintenance Phase (Visit 10), lacosamide and placebo): Statistically significant differences
difference in LSMean pain score between the two groups ([2]; lacosamide vs placebo, FAS (LOCF), p=0.0390): 0.9
mean plasma drug concentration, peak ([3]; Visit 9): 11400 ng/mL
mean plasma drug concentration, trough ([3]; Visit 9): 7700 ng/mL
mean plasma drug concentration, peak ([3]; Visit 10): 9100 ng/mL
mean plasma drug concentration, trough ([3]; Visit 10): 7900 ng/mL
HbA1C level, mean change ([4]; Baseline to Visit 8, lacosamide group): 0.1%
Body weight change during treatment ([4]; lacosamide group): -0.5 kg
subjects who withdrew from the trial due to an AE ([4]; lacosamide group): 5 subjects
subjects with a serious adverse event (SAE) ([4]; lacosamide treatment group, abnormal ECG judged unlikely related to study medication): one
mean duration of exposure to study medication ([4]; lacosamide treatment group, indicating high tolerability): 59.6 days
subjects reporting adverse events associated with the central and peripheral nervous system ([4]; of 60 lacosamide subjects): 38%
subjects who reported at least one treatment-emergent adverse event (TEAE), overall incidence rate [4, 8]: 87%
subjects who withdrew from the trial due to an AE [4, 8]: 8%
weight gain ([4]; trial conclusion): did not induce weight gain
Licking time % change (a): compared with vehicle control [1, 9]: −34% (a)
Licking time (seconds) mean ± SEM [1, 9]: 146.9 ± 23.8 s
No. of flinches % change (a): compared with vehicle control [1, 9]: −33% (a)
No. of flinches mean ± SEM [1, 9]: 85.7 ± 14.3
decrease in number of flinches as compared with vehicle controls ([1]; Example 2, lacosamide alone at 20 mg/kg): 33%
decrease in time spent licking as compared with vehicle controls ([1]; Example 2, lacosamide alone at 20 mg/kg, p=0.0962): 34%
Licking time % change (a): compared with vehicle control [1, 10]: −28% (a)
Licking time (seconds) mean ± SEM [1, 10]: 210.1 ± 22.7 s
No. of flinches % change (a): compared with vehicle control [1, 10]: +22% (a)
No. of flinches mean ± SEM [1, 10]: 182.7 ± 25.9
Licking time % change (a): compared with vehicle control [1, 11]: −56% (a)
Licking time (seconds) mean ± SEM [1, 11]: 128.2 ± 28.0 s
No. of flinches % change (a): compared with vehicle control [1, 11]: −35% (a)
No. of flinches mean ± SEM [1, 11]: 97.2 ± 16.0
increase in number of flinches as compared with vehicle controls ([1]; Example 3, lacosamide alone at 10 mg/kg): 22%
decrease in time spent licking ([1]; Example 3, lacosamide alone at 10 mg/kg, p<0.05): 28%
decrease in time spent licking ([1]; Example 3, lacosamide alone at 20 mg/kg, p<0.001): 56%
decrease in number of flinches as compared with vehicle controls ([1]; Example 3, lacosamide alone at 20 mg/kg, p=0.0961): 35%
decrease in time spent licking ([1]; Example 4, lacosamide 10 mg/kg alone, p=0.0538): 30%
Licking time % change (a): compared with vehicle control [1, 12]: −30% (a)
Licking time (seconds) mean ± SEM [1, 12]: 185.2 ± 31.7 s
No. of flinches % change (a): compared with vehicle control [1, 12]: +5% (a)
No. of flinches mean ± SEM [1, 12]: 158.2 ± 15.6
Licking time % change (a): compared with vehicle control [1, 13]: −4% (a)
Licking time (seconds) mean ± SEM [1, 13]: 168.5 ± 23.9 s
No. of flinches % change (a): compared with vehicle control [1, 13]: −31% (a)
No. of flinches mean ± SEM [1, 13]: 113.9 ± 23.2
Licking time % change (a): compared with vehicle control [1, 14]: −52% (a)
Licking time (seconds) mean ± SEM [1, 14]: 85.1 ± 19.1 s
No. of flinches % change (a): compared with vehicle control [1, 14]: −48% (a)
No. of flinches mean ± SEM [1, 14]: 85.8 ± 14.4
decrease in number of flinches as compared with vehicle controls [1, 15]: 31%
effect on time spent licking [1, 15]: no clear effects
decrease in time spent licking ([1]; Example 5, lacosamide alone at 20 mg/kg, p<0.01): 52%
decrease in number of flinches as compared with vehicle controls ([1]; Example 5, lacosamide alone at 20 mg/kg, p<0.05): 48%

CC12CC3CC(C)(C1)CC(N)(C3)C2 [Memantine]
Licking time % change (a): compared with vehicle control [1, 16]: +25% (a)
Licking time (seconds) mean ± SEM [1, 16]: 219.9 ± 21.8 s
No. of flinches % change (a): compared with vehicle control [1, 16]: −3% (a)
No. of flinches mean ± SEM [1, 16]: 161.4 ± 26.3
Licking time % change (a): compared with vehicle control [1, 17]: +35% (a)
Licking time (seconds) mean ± SEM [1, 17]: 237.3 ± 18.9 s
No. of flinches % change (a): compared with vehicle control [1, 17]: −20% (a)
No. of flinches mean ± SEM [1, 17]: 132.3 ± 24.6
increase in time spent licking ([1]; Example 5, memantine alone at 4 mg/kg, p=0.0537): 25%
increase in time spent licking ([1]; Example 5, memantine alone at 8 mg/kg, p<0.05): 35%
number of flinches as compared with vehicle controls ([1]; Example 5, memantine alone at 4 and 8 mg/kg): did not clearly affect

CN1CC[C@]23c4c5ccc(O)c4O[C@H]2[C@@H](O)C=C[C@H]3[C@H]1C5 [Morphine]
Licking time % change (a): compared with vehicle control [1, 18]: −1% (a)
Licking time (seconds) mean ± SEM [1, 18]: 289.3 ± 30.7 s
No. of flinches % change (a): compared with vehicle control [1, 18]: −7% (a)
No. of flinches mean ± SEM [1, 18]: 139.5 ± 25.3
Licking time % change (a): compared with vehicle control [1, 19]: −20% (a)
Licking time (seconds) mean ± SEM [1, 19]: 234.9 ± 37.3 s
No. of flinches % change (a): compared with vehicle control [1, 19]: −37% (a)
No. of flinches mean ± SEM [1, 19]: 94.3 ± 21.1
number of flinches and time spent licking as compared with vehicle controls ([1]; Example 3, morphine alone at 2 and 4 mg/kg, effects did not reach statistical significance): dose-dependently decreased
